Laboratory results: patent US11306092B2, “Amino indole compounds useful as TLR inhibitors” (BRISTOL-MYERS SQUIBB COMPANY, priority 2017, dated 2022)

Legend:
Type in all cases: cell-based
human TLR7 = molecular target: T1, human TLR7 (Homo sapiens, UniProt Q9NYK1); assay: TLR7 inhibition reporter assay (HEK-Blue SEAP reporter); settings: HEK-Blue cells overexpressing human TLR7; gardiquimod 7.5 μM; 22 hour incubation
T1 construct: host or cells: HEK-Blue cells
T1 sequence (Q9NYK1 27-1049): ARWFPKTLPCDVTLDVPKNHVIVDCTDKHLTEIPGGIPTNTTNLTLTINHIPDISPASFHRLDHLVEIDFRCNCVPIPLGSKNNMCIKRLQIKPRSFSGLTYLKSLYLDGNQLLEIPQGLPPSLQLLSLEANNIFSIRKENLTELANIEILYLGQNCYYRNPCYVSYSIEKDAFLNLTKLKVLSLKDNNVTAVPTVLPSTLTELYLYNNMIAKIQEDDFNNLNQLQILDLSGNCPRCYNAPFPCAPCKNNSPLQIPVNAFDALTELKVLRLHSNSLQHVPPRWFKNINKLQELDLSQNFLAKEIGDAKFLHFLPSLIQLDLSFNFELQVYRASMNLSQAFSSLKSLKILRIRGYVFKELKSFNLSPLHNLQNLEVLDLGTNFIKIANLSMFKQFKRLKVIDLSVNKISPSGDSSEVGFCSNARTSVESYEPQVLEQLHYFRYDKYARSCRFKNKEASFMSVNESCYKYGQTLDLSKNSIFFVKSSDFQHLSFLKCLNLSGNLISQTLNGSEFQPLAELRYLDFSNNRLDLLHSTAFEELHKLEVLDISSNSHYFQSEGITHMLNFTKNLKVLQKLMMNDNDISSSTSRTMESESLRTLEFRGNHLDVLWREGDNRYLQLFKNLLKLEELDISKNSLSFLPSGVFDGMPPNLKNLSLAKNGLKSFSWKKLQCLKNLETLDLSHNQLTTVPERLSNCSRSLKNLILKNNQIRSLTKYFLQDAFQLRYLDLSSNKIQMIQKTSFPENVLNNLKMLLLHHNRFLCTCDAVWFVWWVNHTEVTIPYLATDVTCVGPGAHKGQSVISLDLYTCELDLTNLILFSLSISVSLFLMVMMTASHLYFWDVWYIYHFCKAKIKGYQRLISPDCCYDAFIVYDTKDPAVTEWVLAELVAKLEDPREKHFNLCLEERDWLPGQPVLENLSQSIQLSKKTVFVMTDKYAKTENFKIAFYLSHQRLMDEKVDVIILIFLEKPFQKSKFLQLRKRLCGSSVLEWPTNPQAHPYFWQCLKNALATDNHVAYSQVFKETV
Outline: (§1)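 HEK-Blue cells overexpressing human TLR7, TLR8 or TLR9 carry a SEAP reporter driven by NF-κB/AP-1 sites. Compounds (0.05 nM–50 μM) were preincubated 30 min at room temperature, then cells were stimulated with gardiquimod 7.5 μM (TLR7), R848 15.9 μM (TLR8) or ODN2006 5 nM (TLR9) for 22 h at 37 °C.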

human TLR8 = molecular target: T2, human TLR8 (Homo sapiens, UniProt Q9NR97); assay: TLR8 inhibition reporter assay (HEK-Blue SEAP reporter); settings: HEK-Blue cells overexpressing human TLR8; R848 15.9 μM; 22 hour incubation
T2 construct: host or cells: HEK-Blue cells
T2 sequence (Q9NR97 27-1041): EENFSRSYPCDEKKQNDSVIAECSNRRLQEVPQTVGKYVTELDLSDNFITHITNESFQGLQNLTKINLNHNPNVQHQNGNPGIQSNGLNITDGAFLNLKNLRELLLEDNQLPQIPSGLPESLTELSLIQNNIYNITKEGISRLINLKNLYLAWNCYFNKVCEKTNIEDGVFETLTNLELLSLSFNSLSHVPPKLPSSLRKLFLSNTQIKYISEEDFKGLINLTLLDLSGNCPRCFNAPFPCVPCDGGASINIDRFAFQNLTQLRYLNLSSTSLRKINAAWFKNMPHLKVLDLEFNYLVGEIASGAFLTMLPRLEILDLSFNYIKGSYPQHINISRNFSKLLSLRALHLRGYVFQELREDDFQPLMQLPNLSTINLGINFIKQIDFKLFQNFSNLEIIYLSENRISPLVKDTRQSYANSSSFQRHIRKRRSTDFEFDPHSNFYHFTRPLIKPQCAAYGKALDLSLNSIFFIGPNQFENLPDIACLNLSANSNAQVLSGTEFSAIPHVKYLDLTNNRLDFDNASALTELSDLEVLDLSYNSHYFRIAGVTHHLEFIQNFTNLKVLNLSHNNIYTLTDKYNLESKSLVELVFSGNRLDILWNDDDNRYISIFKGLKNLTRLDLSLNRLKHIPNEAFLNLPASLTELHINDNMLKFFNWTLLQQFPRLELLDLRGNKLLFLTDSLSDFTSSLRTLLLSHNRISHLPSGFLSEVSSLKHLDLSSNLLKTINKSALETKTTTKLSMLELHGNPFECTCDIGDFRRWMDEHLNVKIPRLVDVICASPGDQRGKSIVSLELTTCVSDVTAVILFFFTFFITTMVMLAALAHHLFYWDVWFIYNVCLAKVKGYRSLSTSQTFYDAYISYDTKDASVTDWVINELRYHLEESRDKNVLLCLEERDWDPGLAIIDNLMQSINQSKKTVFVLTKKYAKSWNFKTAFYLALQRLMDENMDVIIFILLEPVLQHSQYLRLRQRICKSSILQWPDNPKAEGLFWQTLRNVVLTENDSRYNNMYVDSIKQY
Protocol: TLR7/8/9 Inhibition Reporter Assays
HEK-Blue™-cells (Invivogen) overexpressing human TLR7, TLR8 or TLR9 receptors were used for screening inhibitors of these receptors using an inducible SEAP (secreted embryonic alkaline phosphatase) reporter gene under the control of the IFN-β minimal promoter fused to five NF-κB and AP-1-binding sites. Briefly, cells are seeded into Greiner 384 well plates (15000 cells per well for TLR7, 20,000 for TLR8 and 25,000 for TLR9) and then treated with test compounds in DMSO to yield a final dose response concentration range of 0.05 nM-50 μM. After a 30 minute compound pre-treatment at room temperature, the cells are then stimulated with a TLR7 ligand (gardiquimod at a final concentration of 7.5 μM), TLR8 ligand (R848 at a final concentration of 15.9 μM) or TLR9 ligand (ODN2006 at a final concentration of 5 nM) to activate NF-κB and AP-1 which induce the production of SEAP. After a 22 hour incubation at 37° C., 5% CO2, SEAP levels are determined with the addition of HEK-Blue™ Detection reagent (Invivogen), a cell culture medium that allows for detection of SEAP, according to manufacturer's specifications. The percent inhibition is determined as the % reduction in the HEK-Blue signal present in wells treated with agonist plus DMSO alone compared to wells treated with a known inhibitor.

human TLR9 = molecular target: T3, human TLR9 (Homo sapiens, UniProt Q9NR96); assay: TLR9 inhibition reporter assay (HEK-Blue SEAP reporter); settings: HEK-Blue cells overexpressing human TLR9; ODN2006 5 nM; 22 hour incubation
T3 construct: host or cells: HEK-Blue cells
T3 sequence (Q9NR96 26-1032): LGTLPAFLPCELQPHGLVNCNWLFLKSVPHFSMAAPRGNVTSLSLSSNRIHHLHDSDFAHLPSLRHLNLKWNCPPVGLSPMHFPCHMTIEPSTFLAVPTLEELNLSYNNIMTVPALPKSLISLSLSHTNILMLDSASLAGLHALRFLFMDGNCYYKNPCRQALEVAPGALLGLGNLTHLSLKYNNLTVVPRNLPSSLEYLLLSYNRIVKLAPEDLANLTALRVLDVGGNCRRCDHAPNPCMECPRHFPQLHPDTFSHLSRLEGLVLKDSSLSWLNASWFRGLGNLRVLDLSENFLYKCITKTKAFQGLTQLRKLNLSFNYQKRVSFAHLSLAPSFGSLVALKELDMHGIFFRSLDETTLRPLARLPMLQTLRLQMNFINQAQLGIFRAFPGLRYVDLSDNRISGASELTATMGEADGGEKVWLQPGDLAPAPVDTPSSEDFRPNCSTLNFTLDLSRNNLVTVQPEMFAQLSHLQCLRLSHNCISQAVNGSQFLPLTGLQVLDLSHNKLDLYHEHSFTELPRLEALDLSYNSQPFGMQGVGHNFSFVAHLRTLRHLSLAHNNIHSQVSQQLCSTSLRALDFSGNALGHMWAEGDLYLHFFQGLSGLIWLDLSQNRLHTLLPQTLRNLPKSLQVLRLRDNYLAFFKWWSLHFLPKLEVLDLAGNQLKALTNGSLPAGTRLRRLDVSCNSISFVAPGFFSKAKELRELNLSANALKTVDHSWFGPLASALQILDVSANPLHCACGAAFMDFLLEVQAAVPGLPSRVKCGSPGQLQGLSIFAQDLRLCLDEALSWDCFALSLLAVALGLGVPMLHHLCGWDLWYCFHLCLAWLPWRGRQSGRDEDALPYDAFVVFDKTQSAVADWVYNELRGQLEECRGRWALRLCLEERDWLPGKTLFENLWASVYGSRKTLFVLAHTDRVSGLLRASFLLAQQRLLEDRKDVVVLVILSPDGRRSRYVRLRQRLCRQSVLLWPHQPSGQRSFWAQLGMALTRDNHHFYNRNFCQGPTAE
Outline: as §1

Row | SMILES | IC50 (human TLR7) [nM] | IC50 (human TLR8) [nM] | IC50 (human TLR9) [nM]
1 | Cc1cc(-c2[nH]c3ccc(N4CCC(N5CCN(C(C)C)CC5)C4=O)cc3c2C(C)C)cc(C)n1 (single isomer, unassigned) [Example 5, 1-(2-(2,6-dimethylpyridin-4-yl)-3-isopropyl-1H-indol-5-yl)-3-(4-isopropylpiperazin-1-yl) pyrrolidin-2-one] | 6.4 | 5.8 | 597
2 | Cc1cc(-c2[nH]c3ccc(N4CCC(N5CCN(C(C)C)CC5)C4=O)cc3c2C(C)C)cc(C)n1 (single isomer, unassigned) [Example 6, 1-(2-(2,6-dimethylpyridin-4-yl)-3-isopropyl-1H-indol-5-yl)-3-(4-isopropylpiperazin-1-yl) pyrrolidin-2-one] | 3.9 | 4.9 | 1020
3 | CNCCNC1CCC(Nc2ccc3[nH]c(-c4ccc(OC)c(OC)c4)c(C(C)C)c3c2)CC1 (single isomer, unassigned) [Example 30, N1-(2-(3,4-dimethoxyphenyl)-3-isopropyl-1H-indol-5-yl)-N4-(2-(methylamino)ethyl)cyclohexane-1,4-diamine] | 434 | 234 | 281
4 | COc1ccc(-c2[nH]c3ccc(NC4CCC(NC5CCN(C)CC5)CC4)cc3c2C(C)C)cc1OC (single isomer, unassigned) [Example 40, N1-(2-(3,4-dimethoxyphenyl)-3-isopropyl-1H-indol-5-yl)-N4-(1-methylpiperidin-4-yl)cyclohexane-1,4-diamine] | 43 | 171 | 570
5 | CNCCNC1CCN(c2ccc3[nH]c(-c4ccnc(C)c4)c(C(C)C)c3c2)C1=O (stereo not shown) [Example 1, 1-(3-isopropyl-2-(2-methylpyridin-4-yl)-1H-indol-5-yl)-3-((2-(methylamino)ethyl)amino)pyrrolidin-2-one] | 189 | 16 | 488
6 | Cc1cc(-c2[nH]c3ccc(N4CCC(N(C)CCN)C4=O)cc3c2C(C)C)ccn1 (stereo not shown) [Example 2, 3-((2-aminoethyl)(methyl)amino)-1-(3-isopropyl-2-(2-methylpyridin-4-yl)-1H-indol-5-yl)pyrrolidin-2-one] | 99 | 28 | 4970
7 | COc1ccc(-c2[nH]c3ccc(N4CCC(N(C)C)C4=O)cc3c2C(C)C)cc1OC (stereo not shown) [Example 3, 1-(2-(3,4-dimethoxyphenyl)-3-isopropyl-1H-indol-5-yl)-3-(dimethylamino)pyrrolidin-2-one] | 44 | 31 | 10800
8 | COc1ccc(-c2[nH]c3ccc(NC(=O)[C@@H](N)CC(N)=O)cc3c2C(C)C)cc1OC [Example 18, (S)-2-amino-N1-(2-(3,4-dimethoxyphenyl)-3-isopropyl-1H-indol-5-yl)succinamide] | 280 | 89 | –
9 | COc1ccc(-c2[nH]c3ccc(NC(=O)[C@H](N)CC(N)=O)cc3c2C(C)C)cc1OC [Example 19, (R)-2-amino-N1-(2-(3,4-dimethoxyphenyl)-3-isopropyl-1H-indol-5-yl)succinamide] | 441 | 97 | –
10 | COc1ccc(-c2[nH]c3ccc(N4CCC(CCN(C)C)CC4)cc3c2C(C)C)cc1OC [Example 71, 2-(1-(2-(3,4-dimethoxyphenyl)-3-isopropyl-1H-indol-5-yl)piperidin-4-yl)-N,N-dimethylethan-1-amine] | – | > 50000 | 608
11 | CCN1CCC(N2CCN(c3ccc4[nH]c(-c5ccc(OC)c(OC)c5)c(C)c4c3)CC2)CC1 [Example 155, 2-(3,4-dimethoxyphenyl)-5-(4-(1-ethylpiperidin-4-yl)piperazin-1-yl)-3-methyl-1H-indole] | – | > 50000 | 451
12 | CCc1c(-c2ccnc(C)c2)[nH]c2ccc(N3CCC(OC4CCN(C(C)C)CC4)CC3)cc12 [Example 182, 3-ethyl-5-(4-((1-isopropylpiperidin-4-yl)oxy)piperidin-1-yl)-2-(2-methylpyridin-4-yl)-1H-indole] | – | 47900 | 658
